Laboratory results as given in ChEMBL document CHEMBL1201862, “PubChem BioAssay data set” (2004).
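Protocol summary: plate cells (96-well), add compound at 5 concentrations, incubate 48 h, interpolate endpoints linearly. Abbreviation: GI50, concentration required for 50% inhibition of growth.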 Activity calls are given as the source filed them. Rule as the data show it: active = GI50 up to about 1.1 µM and inactive = higher.

What was measured:
Experiment in all cases: growth of human tumour cells (NCI), 48 h
Malme-3M = test system: Malme-3M
OVCAR-8 = test system: OVCAR-8
NCI-H522 = test system: NCI-H522
PC-3 = test system: PC-3
MDA-MB-231 = test system: MDA-MB-231
ACHN = test system: ACHN
UACC-257 = test system: UACC-257
SF-268 = test system: SF-268
MCF7 = test system: MCF7
HCT-15 = test system: HCT-15
OVCAR-5 = test system: OVCAR-5
LOX IMVI = test system: LOX IMVI
RPMI-8226 = test system: RPMI-8226
UACC-62 = test system: UACC-62
SNB-75 = test system: SNB-75
DU-145 = test system: DU-145
Hs-578T = test system: Hs-578T
A498 = test system: A498
K562 = test system: K562
HT-29 = test system: HT-29

Row | SMILES | GI50 (Malme-3M) | GI50 (OVCAR-8) | GI50 (NCI-H522) | GI50 (PC-3) | GI50 (MDA-MB-231) | GI50 (ACHN) | GI50 (UACC-257) | GI50 (SF-268) | GI50 (MCF7) | GI50 (HCT-15) [µM] | GI50 (OVCAR-5) | GI50 (LOX IMVI) | GI50 (RPMI-8226) | GI50 (UACC-62) | GI50 (SNB-75) | GI50 (DU-145) | GI50 (Hs-578T) | GI50 (A498) | GI50 (K562) | GI50 (HT-29)
1 | CC1=NN(c2nc(N)nc(/C(C#N)=C/c3ccc([N+](=O)[O-])o3)n2)C(C)(C)C1 | 2.01 µM (inactive) | 2.51 µM (inactive) | 1.66 µM (inactive) | 9.68 µM (inactive) | 1.81 µM (inactive) | 1.81 µM (inactive) | 10 µM (inactive) | 3.85 µM (inactive) | 1.69 µM (inactive) | 1.42 | 1.58 µM (inactive) | 1.73 µM (inactive) | 3.01 µM (inactive) | 2.19 µM (inactive) | 2.85 µM (inactive) | 6.35 µM (inactive) | 13.2 µM (inactive) | 17.8 µM (inactive) | 0.315 µM (active) | 2.09 µM (inactive)
2 | COC12C(COC(=O)NCCO)C3=C(C(=O)C(C)=C(N)C3=O)N1CC1NC12 (stereo not given) | 21.1 µM (inactive) | 38.3 µM (inactive) | 14.5 µM (inactive) | 35.2 µM (inactive) | 233 µM (inactive) | 6.59 µM (inactive) | 69.7 µM (inactive) | 11.6 µM (inactive) | 16 µM (inactive) | 170 | 28.7 µM (inactive) | 13.8 µM (inactive) | 74.8 µM (inactive) | 8.11 µM (inactive) | 17.4 µM (inactive) | 39.4 µM (inactive) | 198 µM (inactive) | 60.7 µM (inactive) | 103 µM (inactive) | 29.2 µM (inactive)
3 | CCn1c2ccc(C(=O)CCCN3CCCCC3)cc2c2cc(C(=O)CCCN3CCCCC3)ccc21 | 6.85 µM (inactive) | 1.44 µM (inactive) | 1.56 µM (inactive) | 2.13 µM (inactive) | 1.83 µM (inactive) | 1.74 µM (inactive) | 1.9 µM (inactive) | 4.94 µM (inactive) | 1.58 µM (inactive) | 1.86 | 6.95 µM (inactive) | 1.86 µM (inactive) | 1.75 µM (inactive) | 23 µM (inactive) | 2.24 µM (inactive) | 5.33 µM (inactive) | 2.44 µM (inactive) | 5.7 µM (inactive) | 2.97 µM (inactive) | 1.39 µM (inactive)
4 | COC(=O)[C@@H]1[C@@H]2NC(=S)N[C@@]1(C)Oc1ccccc12 | 52 µM (inactive) | 51.5 µM (inactive) | 31.6 µM (inactive) | 63.5 µM (inactive) | 74.6 µM (inactive) | 87.9 µM (inactive) | > 100 µM (inactive) | 39 µM (inactive) | 45.7 µM (inactive) | 32.1 | 60.4 µM (inactive) | 37.6 µM (inactive) | 48.2 µM (inactive) | 78.3 µM (inactive) | 27.4 µM (inactive) | 36.3 µM (inactive) | 51.9 µM (inactive) | > 100 µM (inactive) | 29.5 µM (inactive) | 28.5 µM (inactive)
5 | CC(=O)Nc1ccc2cc3[nH]c4cc(NC(C)=O)ccc4c3nc2c1 | > 100 µM (inactive) | > 100 µM (inactive) | > 100 µM (inactive) | > 100 µM (inactive) | > 100 µM (inactive) | > 100 µM (inactive) | > 100 µM (inactive) | > 100 µM (inactive) | > 100 µM (inactive) | > 100 | > 100 µM (inactive) | > 100 µM (inactive) | > 100 µM (inactive) | > 100 µM (inactive) | > 100 µM (inactive) | > 100 µM (inactive) | > 100 µM (inactive) | > 100 µM (inactive) | 77.1 µM (inactive) | > 100 µM (inactive)
6 | COc1ccc2c(-c3ccc(O)cc3)c(Oc3ccccc3)c(=O)oc2c1 | 9.44 µM (inactive) | 16.2 µM (inactive) | 8.2 µM (inactive) | > 66.5 µM (inactive) | 18.8 µM (inactive) | > 34.4 µM (inactive) | > 100 µM (inactive) | > 32.9 µM (inactive) | 4.61 µM (inactive) | 5.04 | > 24.4 µM (inactive) | 8.61 µM (inactive) | 2.62 µM (inactive) | > 24.4 µM (inactive) | > 33.9 µM (inactive) | 4.58 µM (inactive) | > 50 µM (inactive) | > 31.4 µM (inactive) | 8.91 µM (inactive) | 11.7 µM (inactive)
7 | Cc1cc(-c2nc3ccc(F)cc3s2)ccc1N | > 100 µM (inactive) | > 100 µM (inactive) | 21.5 µM (inactive) | 63.5 µM (inactive) | > 100 µM (inactive) | 68.2 µM (inactive) | > 100 µM (inactive) | > 100 µM (inactive) | < 0.01 µM (active) | > 100 | > 100 µM (inactive) | > 100 µM (inactive) | 5.6 µM (inactive) | 89.1 µM (inactive) | > 100 µM (inactive) | > 100 µM (inactive) | 37.2 µM (inactive) | 2.55 µM (inactive) | > 100 µM (inactive) | > 100 µM (inactive)
8 | O=C(O)c1cccc(CC(Br)C(=O)O)c1 (stereo not given) | > 100 µM (inactive) | > 100 µM (inactive) | > 100 µM (inactive) | > 100 µM (inactive) | > 100 µM (inactive) | > 100 µM (inactive) | > 100 µM (inactive) | > 100 µM (inactive) | > 100 µM (inactive) | > 100 | > 100 µM (inactive) | > 100 µM (inactive) | > 100 µM (inactive) | > 100 µM (inactive) | > 100 µM (inactive) | > 100 µM (inactive) | > 100 µM (inactive) | > 100 µM (inactive) | > 100 µM (inactive) | > 100 µM (inactive)
9 | Cc1cc2occ(S(=O)(=O)NC(=O)Nc3ccc(Cl)cc3)c(=O)c2c(=O)o1 | > 100 µM (inactive) | > 100 µM (inactive) | > 100 µM (inactive) | > 100 µM (inactive) | > 100 µM (inactive) | 40.2 µM (inactive) | > 100 µM (inactive) | > 100 µM (inactive) | > 100 µM (inactive) | 9.18 | > 100 µM (inactive) | > 100 µM (inactive) | > 100 µM (inactive) | 23.4 µM (inactive) | > 100 µM (inactive) | > 100 µM (inactive) | > 100 µM (inactive) | > 100 µM (inactive) | > 100 µM (inactive) | > 100 µM (inactive)
10 | CCc1oc2ccccc2c1C(=O)c1cc(Br)c(O)c(Br)c1 [BENZBROMARONE] | 19.1 µM (inactive) | 32.7 µM (inactive) | 19.9 µM (inactive) | 20 µM (inactive) | 20.5 µM (inactive) | 17.5 µM (inactive) | 19.3 µM (inactive) | 28.1 µM (inactive) | 23.7 µM (inactive) | 27.6 | 21.4 µM (inactive) | 24.7 µM (inactive) | 29 µM (inactive) | 16.9 µM (inactive) | 18.9 µM (inactive) | 43.3 µM (inactive) | 24.5 µM (inactive) | 20.5 µM (inactive) | 30.9 µM (inactive) | 30.3 µM (inactive)
11 | OC(CC(CC(O)(C(F)(F)F)C(F)(F)F)=NN=C(CC(O)(C(F)(F)F)C(F)(F)F)CC(O)(C(F)(F)F)C(F)(F)F)(C(F)(F)F)C(F)(F)F | > 10 µM (inactive) | > 10 µM (inactive) | > 10 µM (inactive) | > 10 µM (inactive) | > 10 µM (inactive) | > 10 µM (inactive) | > 10 µM (inactive) | > 10 µM (inactive) | > 10 µM (inactive) | > 10 | > 10 µM (inactive) | > 10 µM (inactive) | > 10 µM (inactive) | > 10 µM (inactive) | > 10 µM (inactive) | > 10 µM (inactive) | > 10 µM (inactive) | > 10 µM (inactive) | > 10 µM (inactive) | > 10 µM (inactive)
12 | Cn1c(=O)c2c(nc(N3CCOCC3)n2CCCNCC(O)c2ccc(O)c(O)c2)n(C)c1=O (stereo not given) | > 100 µM (inactive) | 25.4 µM (inactive) | > 100 µM (inactive) | > 100 µM (inactive) | 0.0262 µM (active) | > 100 µM (inactive) | > 100 µM (inactive) | > 100 µM (inactive) | > 100 µM (inactive) | > 100 | 23.9 µM (inactive) | > 100 µM (inactive) | > 100 µM (inactive) | > 100 µM (inactive) | > 100 µM (inactive) | > 100 µM (inactive) | > 100 µM (inactive) | > 100 µM (inactive) | > 100 µM (inactive) | > 100 µM (inactive)
13 | C[C@]12CCC(=O)C=C1CC[C@@H]1[C@@H]2CC[C@]2(C)C(=O)/C(=C/c3ccc([N+](=O)[O-])cc3)C[C@@H]12 | 70.8 µM (inactive) | 45.8 µM (inactive) | 4.66 µM (inactive) | 7.87 µM (inactive) | 75.2 µM (inactive) | 2.36 µM (inactive) | 6.59 µM (inactive) | 83.6 µM (inactive) | 0.621 µM (active) | 10.5 | > 100 µM (inactive) | 37.9 µM (inactive) | 5.52 µM (inactive) | 3.36 µM (inactive) | 42 µM (inactive) | 0.824 µM (active) | > 100 µM (inactive) | 2.3 µM (inactive) | 3.35 µM (inactive) | > 100 µM (inactive)
14 | CCC12C=CCN3CCC4(c5cc(C(c6ccc(OC)cc6)C6Cc7ccccc7N6)c(OC)cc5N(C)C4C(O)(C(=O)OC)C1O)C32 (stereo not given) | 36.6 µM (inactive) | 15.1 µM (inactive) | 16.4 µM (inactive) | 12.6 µM (inactive) | 16.1 µM (inactive) | 19.2 µM (inactive) | 20.5 µM (inactive) | 44.6 µM (inactive) | 5.19 µM (inactive) | 22 | 36.7 µM (inactive) | 14.1 µM (inactive) | 1.83 µM (inactive) | 11.8 µM (inactive) | 3.66 µM (inactive) | 29 µM (inactive) | 63.7 µM (inactive) | 11.6 µM (inactive) | 3.42 µM (inactive) | 18.2 µM (inactive)
